The values that follow come from US20030176456A1, “Methods for reducing alcohol cravings in chronic alcoholics” (priority 2001, published 2003).

pIC50, pKi: −log10 of the molar value. Read-outs that look alike come from different tables or passages of the source.

Series [1] addresses T1, α5β3γ2 GABAA receptor (Homo sapiens, UniProt P18507+P31644).
T1 construct: expressed in transfected cells
The experiment in a line: Binding affinity at recombinant GABAA receptors (Ltk cells stably transfected).

For series [2], the target named is wild type BDZ receptors (cerebral cortical membranes). The experiment in a line: Radioligand displacement at cerebral cortical membranes. It is filed as binding. The following applies: read-out: Displacement of [3H] flunitrazepam in vitro, IC50; rat cerebral cortical membranes; mean of three or more experiments. Here is the method: [^3H] […] In brief, rats were sacrificed by decapitation, and the cerebral cortex removed. […] Tissue was resuspended in an equal volume of buffer and recentrifuged. This procedure was repeated a total of three times and the tissue resuspended in 50 volumes of buffer. Incubations (1 mL) consisted of tissue (0.3 mL), drug solution (0.1 mL), buffer (0.5 mL) and radioligand (0.1 mL). […] The IC50 values were estimated using Hill plots.
In general terms: Loss of bound radioactivity is the signal in a displacement assay; it reports binding, not function.

Series [3] addresses T2, α1β3γ2 GABAA receptor (Homo sapiens, UniProt P14867+P18507).
T2 construct: expressed in transfected cells
Put plainly: Binding affinity at recombinant GABAA receptors (Ltk cells stably transfected). The following applies: recombinant αxβ3γ2; read-out: Ki α1.

In series [4] the target is T3, α6β3γ2 GABAA receptor (Homo sapiens, UniProt P18507+Q16445).
T3 construct: expressed in transfected cells
Described as above.

Series [5] has as its target T4, α2β3γ2 GABAA receptor (Homo sapiens, UniProt P18507+P47869).
T4 construct: expressed in transfected cells
The series is described as above. To be noted: recombinant αxβ3γ2; read-out: Ki α2.

Series [6] addresses T2, α1β3γ2 GABAA receptor. The following applies: footnoted b (Schering Labs, unpublished) or c (McKernan et al., 2000); read-out: Ki α1; cited from earlier work.
For series [7], the target named is T1, α5β3γ2 GABAA receptor. The following applies: footnoted b or c; read-out: Ki α5; cited from earlier work.
Series [8] deals with T5, GABAA α1β3γ2 receptors (Rattus norvegicus, UniProt P18508+P62813).
T5 construct: expressed in transfected cells; host or cells: Xenopus laevis oocytes injected with cRNA
Put plainly: Xenopus oocyte expression assay, modulation of GABA current. To be noted: saturating 1-10 μM modulator with EC50 GABA (50 μM); mean±S.D. It is filed as cell-based.

Series [9] concerns the target T6, α3β3γ2 GABAA receptor (Homo sapiens, UniProt P18507+P34903).
T6 construct: expressed in transfected cells
To be noted: footnoted b or c; read-out: Ki α3; cited from earlier work.

Series [10] concerns the target T3, α6β3γ2 GABAA receptor. The following applies: footnoted b or c; read-out: Ki α6; cited from earlier work.
The target of series [11] is T7, GABAA α5β3γ2 receptors (Rattus norvegicus, UniProt P18508+P19969).
T7 construct: expressed in transfected cells; host or cells: Xenopus laevis oocytes injected with cRNA
Put plainly: Xenopus oocyte expression assay, modulation of GABA current. To be noted: saturating 1-10 μM modulator with EC50 GABA (30 μM); mean±S.D. It is filed as cell-based.

Series [12] relates to alcohol-preferring (P) rats. The following applies: parenteral and oral administration (June et al., 1998b); cited from earlier work.
Series [13] relates to GABAA α4β3γ2 receptors. Put plainly: Xenopus oocyte expression assay, modulation of GABA current. It is filed as cell-based, rat.
Series [14] relates to GABAA α2β3γ2 receptors. Described as above. It is filed as cell-based, rat. The following applies: saturating 1-10 μM modulator with EC50 GABA (50 μM); mean±S.D.
In series [15] the test system is GABAA α3β3γ2 receptors. The description is as above. To be noted: saturating 1-10 μM modulator with EC50 GABA (30 μM); mean±S.D. It is filed as cell-based, rat.
Series [16] concerns the target T4, α2β3γ2 GABAA receptor. To be noted: footnoted b or c; read-out: Ki α2; cited from earlier work.
For series [17] the following is noted: June et al., 1998e; cited from earlier work.
Series [18] relates to recombinant GABAA α1 through α5 (β3γ2) receptors. Put plainly: Xenopus oocyte expression assay, result stated across several subtypes. It is filed as cell-based, rat. To be noted: saturating concentration; compared with 3-PBC.
Series [19] has as its system squirrel monkeys. To be noted: Rowlett et al., unpublished observation; cited from earlier work.
In series [20] the test system is P rats. It is filed as in vivo, rat. To be noted: i.p.; chlordiazepoxide 10 mg/kg, βCCt 15 mg/kg; 10 min open field. How it is done: (§1) Ambulatory count in the open field was recorded individually for 10 min in a plexiglas chamber (42 cm×42 cm 30 cm) using a Digiscan activity monitoring system (Acuscan Electronics, Columbus, Ohio, USA) (for details of the monitoring system see June et al., 1998d).
(§2) βCCt (15 mg/kg i.p.) and chlordiazepoxide (10 mg/kg i.p.) were administered 15 and 30 min, respectively, prior to the rats being placed in the open field. EtOH (1.25 g/kg) was given 5 min prior to placing the rats in the open field. When βCCt was given in combination with either chlordiazepoxide or EtOH, it was given 10 min prior to chlordiazepoxide and EtOH. As noted above, βCCt was administered in Tween-20 solution, while all other drugs were mixed in sterile saline. Animals were tested between 9 am-3 pm.
(§3) Ambulatory count in the open field was recorded individually for 10 min in a plexiglas chamber (42 cm×42 cm 30 cm) using a Digiscan activity monitoring system (Acuscan Electronics, Columbus, Ohio, USA) (for details of the monitoring system see June et al., 1998b).
(§4) βCCt (5-60 mg/kg i.p.) and chlordiazepoxide (2.5, 5, 10 mg/kg i.p.) were administered 15 and 30 min, respectively, prior to being placed in the plus maze or open field. EtOH (1.25 g/kg) was given 5 min prior to placing the rats in the open field. When βCCt was given in combination with either chlordiazepoxide or EtOH, it was given 10 min prior to chlordiazepoxide and EtOH. As noted above, βCCt was administered in Tween-20 solution, while all other drugs were mixed in sterile saline. Animals were tested between 9am-3 pm.

Series [21] concerns HAD-1 rats. It is filed as in vivo, rat. The following applies: i.p.; chlordiazepoxide 10 mg/kg, βCCt 15 mg/kg; 10 min open field. How it is done: as §1, §2, §3, §4
Series [22] deals with P rats. The experiment in a line: EtOH and sucrose responding after oral (gavage) administration. It is filed as in vivo, rat. The source says:
In this study we compared the suppressant effect of βCCt and 3-PBC with naltrexone, a currently used alcohol antagonist on the market. As it is shown in FIG. 29A-B, orally administered βCCt can reduce alcohol responding, however, the effects are not dose related. In addition, 24 hr after administration of βCCt, it continues to reduce alcohol responding with selected doses. […] The suppressant effects of naltrexone in reducing alcohol responding are also dissipated 24 hr after the administration. […] Unlike naltrexone, the suppressant effects observed by βCCt and 3-PBC are selective for alcohol, and not reinforcers in general.

Series [23] deals with T6, α3β3γ2 GABAA receptor. Put plainly: Binding affinity at recombinant GABAA receptors (Ltk cells stably transfected). The following applies: recombinant αxβ3γ2; read-out: Ki α3.
[24] abbreviates: recombinant αxβ3γ2, read-out: Ki α5.
[25] abbreviates: recombinant αxβ3γ2, read-out: Ki α6.

T2 sequence (P14867 28-456): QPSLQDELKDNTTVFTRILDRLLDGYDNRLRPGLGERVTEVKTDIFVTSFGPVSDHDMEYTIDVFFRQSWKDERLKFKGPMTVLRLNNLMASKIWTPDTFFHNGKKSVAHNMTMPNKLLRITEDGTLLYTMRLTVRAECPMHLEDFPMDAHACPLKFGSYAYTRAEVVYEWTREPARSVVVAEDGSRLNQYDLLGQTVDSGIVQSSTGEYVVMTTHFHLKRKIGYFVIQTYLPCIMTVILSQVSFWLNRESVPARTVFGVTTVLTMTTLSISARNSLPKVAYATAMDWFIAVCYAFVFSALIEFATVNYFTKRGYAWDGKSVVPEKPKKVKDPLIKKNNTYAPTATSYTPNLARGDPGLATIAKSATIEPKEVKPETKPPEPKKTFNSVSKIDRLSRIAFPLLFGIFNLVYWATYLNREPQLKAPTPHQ
T2 sequence (P28472 26-473 partner): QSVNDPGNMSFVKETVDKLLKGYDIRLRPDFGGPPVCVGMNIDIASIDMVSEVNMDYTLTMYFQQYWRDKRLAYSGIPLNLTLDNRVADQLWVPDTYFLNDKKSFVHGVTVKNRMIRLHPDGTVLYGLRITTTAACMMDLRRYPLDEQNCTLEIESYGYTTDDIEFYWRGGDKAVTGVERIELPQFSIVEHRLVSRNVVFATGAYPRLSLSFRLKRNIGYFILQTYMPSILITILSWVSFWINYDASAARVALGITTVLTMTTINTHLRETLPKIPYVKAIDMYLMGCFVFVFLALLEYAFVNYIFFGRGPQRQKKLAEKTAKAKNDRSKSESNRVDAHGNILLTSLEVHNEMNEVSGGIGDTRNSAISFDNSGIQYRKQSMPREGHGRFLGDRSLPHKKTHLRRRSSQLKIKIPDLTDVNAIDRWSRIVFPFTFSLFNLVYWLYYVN
T2 sequence (P18507 40-475): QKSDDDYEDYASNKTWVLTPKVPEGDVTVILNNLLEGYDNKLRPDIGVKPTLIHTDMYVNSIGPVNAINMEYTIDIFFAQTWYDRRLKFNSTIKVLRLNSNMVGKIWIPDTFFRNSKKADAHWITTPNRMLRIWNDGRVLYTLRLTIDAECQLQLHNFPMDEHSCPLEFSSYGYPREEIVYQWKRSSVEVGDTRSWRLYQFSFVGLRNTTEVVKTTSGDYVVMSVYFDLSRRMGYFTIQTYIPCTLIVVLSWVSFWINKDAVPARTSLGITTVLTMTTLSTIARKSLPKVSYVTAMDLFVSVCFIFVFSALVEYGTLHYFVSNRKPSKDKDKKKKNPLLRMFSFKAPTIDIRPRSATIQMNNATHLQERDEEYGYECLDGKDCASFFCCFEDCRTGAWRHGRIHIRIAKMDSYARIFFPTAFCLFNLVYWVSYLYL
T6 sequence (P34903 29-492): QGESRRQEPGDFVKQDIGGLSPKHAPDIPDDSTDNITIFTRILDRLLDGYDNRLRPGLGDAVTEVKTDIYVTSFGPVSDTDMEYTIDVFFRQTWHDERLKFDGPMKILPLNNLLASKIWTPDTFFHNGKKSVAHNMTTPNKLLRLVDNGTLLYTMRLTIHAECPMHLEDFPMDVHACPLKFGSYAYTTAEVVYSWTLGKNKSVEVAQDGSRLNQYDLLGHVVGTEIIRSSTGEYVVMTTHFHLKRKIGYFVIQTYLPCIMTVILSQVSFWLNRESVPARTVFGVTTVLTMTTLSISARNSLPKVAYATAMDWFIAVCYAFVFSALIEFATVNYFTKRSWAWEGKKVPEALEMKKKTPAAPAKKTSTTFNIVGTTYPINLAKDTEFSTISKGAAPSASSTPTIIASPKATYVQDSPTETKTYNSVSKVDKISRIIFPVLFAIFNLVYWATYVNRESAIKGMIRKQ
T6 sequence (P28472 26-473 partner): as the sequence (P28472 26-473 partner) above
T6 sequence (P18507 40-475): as the sequence (P18507 40-475) above
T4 sequence (P47869 29-451): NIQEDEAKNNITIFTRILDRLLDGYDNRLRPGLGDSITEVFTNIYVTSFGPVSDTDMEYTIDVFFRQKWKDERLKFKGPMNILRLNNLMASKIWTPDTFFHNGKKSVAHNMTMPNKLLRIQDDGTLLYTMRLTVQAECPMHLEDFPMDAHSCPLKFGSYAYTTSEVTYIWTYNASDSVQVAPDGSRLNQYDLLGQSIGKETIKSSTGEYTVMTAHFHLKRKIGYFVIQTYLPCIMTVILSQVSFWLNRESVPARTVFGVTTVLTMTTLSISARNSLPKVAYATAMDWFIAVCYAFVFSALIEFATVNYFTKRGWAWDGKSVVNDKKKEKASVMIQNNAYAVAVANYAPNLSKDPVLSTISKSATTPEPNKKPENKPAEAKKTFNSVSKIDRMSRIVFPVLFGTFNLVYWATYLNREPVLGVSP
T4 sequence (P28472 26-473 partner): as the sequence (P28472 26-473 partner) above
T4 sequence (P18507 40-475): as the sequence (P18507 40-475) above
T1 sequence (P31644 32-462): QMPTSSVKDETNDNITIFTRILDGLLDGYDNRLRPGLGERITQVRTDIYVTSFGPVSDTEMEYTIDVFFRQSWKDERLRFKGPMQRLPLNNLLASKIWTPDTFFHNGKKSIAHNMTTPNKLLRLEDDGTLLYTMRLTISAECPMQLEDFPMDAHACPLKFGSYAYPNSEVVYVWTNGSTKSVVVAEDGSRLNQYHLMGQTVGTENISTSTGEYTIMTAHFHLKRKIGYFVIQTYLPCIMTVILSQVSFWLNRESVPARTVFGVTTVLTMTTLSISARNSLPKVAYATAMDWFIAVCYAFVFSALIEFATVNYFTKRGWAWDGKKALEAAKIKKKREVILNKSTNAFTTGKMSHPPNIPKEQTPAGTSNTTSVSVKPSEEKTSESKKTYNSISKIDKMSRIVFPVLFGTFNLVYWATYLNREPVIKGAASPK
T1 sequence (P28472 26-473 partner): as the sequence (P28472 26-473 partner) above
T1 sequence (P18507 40-475): as the sequence (P18507 40-475) above
T3 sequence (Q16445 20-453): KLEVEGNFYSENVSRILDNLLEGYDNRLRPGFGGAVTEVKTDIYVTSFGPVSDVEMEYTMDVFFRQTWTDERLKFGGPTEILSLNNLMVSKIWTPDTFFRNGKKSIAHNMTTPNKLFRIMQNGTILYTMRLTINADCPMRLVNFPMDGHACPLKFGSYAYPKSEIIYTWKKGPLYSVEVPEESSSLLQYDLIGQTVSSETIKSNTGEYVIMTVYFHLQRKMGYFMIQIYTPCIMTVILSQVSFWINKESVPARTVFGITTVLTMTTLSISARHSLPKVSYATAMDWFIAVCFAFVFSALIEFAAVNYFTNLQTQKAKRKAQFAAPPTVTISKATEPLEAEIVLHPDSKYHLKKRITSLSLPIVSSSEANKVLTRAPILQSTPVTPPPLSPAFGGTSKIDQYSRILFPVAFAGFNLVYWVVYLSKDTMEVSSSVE
T3 sequence (P28472 26-473 partner): as the sequence (P28472 26-473 partner) above
T3 sequence (P18507 40-475): as the sequence (P18507 40-475) above
T5 sequence (P62813 28-455): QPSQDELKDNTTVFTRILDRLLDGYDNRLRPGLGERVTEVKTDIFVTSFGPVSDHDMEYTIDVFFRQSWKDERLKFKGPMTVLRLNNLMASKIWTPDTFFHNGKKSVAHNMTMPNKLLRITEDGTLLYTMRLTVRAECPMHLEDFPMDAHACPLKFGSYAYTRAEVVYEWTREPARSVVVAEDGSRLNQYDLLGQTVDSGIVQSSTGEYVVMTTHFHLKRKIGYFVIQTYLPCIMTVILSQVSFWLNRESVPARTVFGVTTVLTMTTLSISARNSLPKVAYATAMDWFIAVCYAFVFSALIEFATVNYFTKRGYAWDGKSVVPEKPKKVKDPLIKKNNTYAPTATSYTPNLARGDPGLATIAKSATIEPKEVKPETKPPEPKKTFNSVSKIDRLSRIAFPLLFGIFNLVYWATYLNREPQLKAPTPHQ
T5 sequence (P63079 26-473 partner): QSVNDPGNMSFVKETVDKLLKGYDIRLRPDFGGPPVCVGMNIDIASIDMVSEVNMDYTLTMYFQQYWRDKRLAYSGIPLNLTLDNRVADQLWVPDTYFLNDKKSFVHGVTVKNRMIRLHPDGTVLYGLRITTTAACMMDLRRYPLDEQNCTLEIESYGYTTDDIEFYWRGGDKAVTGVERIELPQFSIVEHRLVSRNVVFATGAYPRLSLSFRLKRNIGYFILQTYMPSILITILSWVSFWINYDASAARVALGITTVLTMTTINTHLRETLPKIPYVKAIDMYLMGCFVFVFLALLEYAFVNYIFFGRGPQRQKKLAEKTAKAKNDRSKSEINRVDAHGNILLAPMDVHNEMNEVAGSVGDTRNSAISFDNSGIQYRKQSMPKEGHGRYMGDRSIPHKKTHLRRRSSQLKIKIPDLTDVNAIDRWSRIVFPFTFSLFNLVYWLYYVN
T5 sequence (P18508 39-466): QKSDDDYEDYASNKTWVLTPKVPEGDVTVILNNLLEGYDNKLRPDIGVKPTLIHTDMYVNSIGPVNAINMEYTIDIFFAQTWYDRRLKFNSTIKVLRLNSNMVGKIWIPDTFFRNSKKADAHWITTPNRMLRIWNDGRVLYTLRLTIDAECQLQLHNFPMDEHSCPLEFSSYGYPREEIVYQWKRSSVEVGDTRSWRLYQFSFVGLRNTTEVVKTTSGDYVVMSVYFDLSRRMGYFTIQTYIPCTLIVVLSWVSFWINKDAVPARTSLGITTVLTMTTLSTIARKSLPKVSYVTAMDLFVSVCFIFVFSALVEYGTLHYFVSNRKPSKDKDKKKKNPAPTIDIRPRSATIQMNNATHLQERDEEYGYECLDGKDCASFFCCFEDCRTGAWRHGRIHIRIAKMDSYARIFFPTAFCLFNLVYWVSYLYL

For the compound `CCOc1cc2c(cn1)[nH]c1ccccc12` [3-EBC], the negative-log Ki (pKi) is 6.06 in series [1] (setting [24]), 8.19 in [3], < 6.00 in series [4] (setting [25]) and 7.60 in series [5]. Further, in series [2], the pIC50 is 7.62.
With `Cc1ccc(-c2nc3ccc(C)cn3c2CC(=O)N(C)C)cc1` [Zolpidem, reference compound], the pKi in [1] and in series [4] was < 6.00 in each case.
Consider `CCOC(=O)c1ncc2[nH]c3cccc(OC(C)C)c3c2c1C` [ZK 93426], for which the negative logarithm of the Ki (pKi) is 7.96 in series [6]; 8.52 in series [7]; 7.62 in series [9]; 5.80 in [10]; 7.51 in [16]. In addition, the “% of GABA response, α1” value in [8] is on record as 146+11%. The “% of GABA response, α5” value in [11] is on record as ~96±6%. Also, the alcohol-maintained responding result in series [12] is “can selectively reduce alcohol-maintained responding”. Also, in series [13], the “% of GABA response, α4” value is 137±8%. Also, the “% of GABA response, α2” value in [14] stood at 140±13%. In series [15], the “% of GABA response, α3” value worked out at 147±10%. Besides, the “blocking the sedative actions of alcohol” value in series [17] is given as “capable of blocking”.
With `CCOC(=O)c1ncn2c1CN(C)C(=O)c1cc(F)ccc1-2` [Ro15-1788, flumazenil], the “% of GABA response, α1” value in series [8] worked out at 99±5%. Further, in series [11], the “% of GABA response, α5” value is 96±6%. For the same compound, the alcohol-maintained responding entry in series [12] is reported as “did not alter EtOH-maintained responding”. The “efficacy profile at the α1 through α5 receptors” value in [18] is on record as “statistically similar to 3-PBC”. Also, the “activity in observational studies vs saline controls” value in [19] was “decreased overall activity”. In addition, the “% of GABA response, α4” value in series [13] (saturating 1-10 μM modulator with EC50 GABA (10 μM), mean±S.D.) is listed as 132±6%. Also, the “% of GABA response, α2” value in [14] is 115±4%. Also, in [15], the “% of GABA response, α3” value came to 118±7%.
Consider `CNC1=Nc2ccc(Cl)cc2C(c2ccccc2)=[N+]([O-])C1` [Chlordiazepoxide, reference compound], for which the “locomotor activity, drug given alone” value in [20] is “profound and comparable reduction in locomotor activity”; in series [21], “profound and comparable reduction in locomotor activity”.
In the case of `CCOC(=O)c1cc2c(cn1)[nH]c1ccccc12` [βCCE], the negative logarithm of the IC50 (pIC50) in series [2] is 8.30.
As to `Cn1ncnc1COc1nn2c(-c3cc(F)ccc3F)nnc2cc1C(C)(C)C` [L-838, 417], the negative-log Ki (pKi) in series [6] was 9.10; in [7] it was 6.57; in series [9] it was 9.17; in series [10], 8.65; in series [16] it was 9.17.
Take `O=C1CC[C@@]2(O)[C@H]3Cc4ccc(O)c5c4[C@@]2(CCN3CC2CC2)[C@H]1O5` [Naltrexone, naltrexone, reference compound]: the responding for sucrose result in series [22] (oral (gavage) 75 mg/kg) is on record as “significantly reduces responding for sucrose”. The EtOH responding entry in [22] (oral (gavage), βCCt 15 & 30 mg/kg, 3-PBC 30-75 mg/kg, naltrexone 30-75 mg/kg) is recorded as “significantly reduces EtOH responding”. The “EtOH responding 24 hours after administration” value in series [22] (oral (gavage), βCCt 15 & 75 mg/kg) is reported as “dissipated”.
For the compound `Cc1nnc2ccc(-c3cccc(C(F)(F)F)c3)nn12` [CL218, 872, reference compound], the negative-log Ki (pKi) was 5.94 in series [23]; 6.25 in series [1] (setting [24]); 7.24 in series [3]; < 6.00 in [4] (setting [25]); 5.71 in series [5].
On to `COc1cc2c(cn1)[nH]c1ccccc12` [3-methoxy], for which the negative logarithm of the IC50 (pIC50) in [2] was 6.91.

As usually defined, the pKi is the Ki on a negative log10 scale, so that one unit is a factor of ten. As usually defined, the pIC50 is the negative decadic logarithm of the IC50, by convention in mol/L.
